Laboratory results published in patent publication US20170198354A1, “METHODS OF GLUCOCORTICOID THERAPY AND DETERMINING RESPONSIVENESS THEREOF” (YISSUM RESEARCH DEVELOPMENT COMPANY OF THE HEBREW …, priority 2014, published 2017).

Tests used:
Assay type in all cases: cell-based, human
GR = GR expression (western blot / mRNA RQ)
Procedure: (§1) Total lysate of 10^6 cells was prepared in 50 μl protein sample buffer (PSB) ×1.5. The following antibodies were used for immuno-blotting: anti-β-Catenin and anti-GR (BD Transduction Laboratories); anti-BIM (Calbichem); anti-CDK2, anti-c-Myb, anti-DVL1 and anti-c-Myc (Santa Cruz Biotechnology); anti-cycline E1 (Cell Signaling Technology); and anti-a-Tubulin (Sigma). Immune-blots images are presented by Image Lab 3.0 software. Specific bands were cropped by transferring images to Adobe Photoshop CS5.
(§2) Total RNA was isolated using miRNeasy mini kit (QIAGEN). For Syber green assay, precipitated RNA samples were treated with Poly A Tailing kit (Ambion). c-DNA was prepared by M-MLV reverse transcriptase (Invitrogen). q-PCR amplification of mRNA was operated by Platinum SYBER Green (Invitrogen) with the following primers: FKBP5 5′ […] 3′ and 5′ GTCTCCAATCATCGGCGTT 3′, SGK1 5′ […] 3′ and 5′ […] 3′. For Taqman based PCR, c-DNA was prepared by Taqman MicroRNA Reverse Transcription Kit (Applied Biosystem). q-PCR was performed using TaqMan 2× Universal PCR Master Mix (Applied Biosystem).

[1] = system: MOLT-4, CUTLL, BJAB and SUD-136 cells; assay: Apoptosis by PI uptake (flow cytometry), GC-resistant cell lines; settings: for miR-103-mediated GCIA after re-expression of miR-17˜92a members: miR-103 overexpressing BJAB; for miR-103-mediated GCIA after re-expression of miR-17˜92a members / Conferring GC sensitivity (GCIA) by miRNA transfection: Dex 72 hrs; for Conferring GC sensitivity (GCIA) by miRNA transfection: BJAB and MOLT-4 transfected with miRNA overexpression plasmids
Source text: (§3) Cell lines models of human T-cell acute lymphocytic leukemia (T-ALL) and Burkitt's lymphoma (BL), including the glucocorticoid (GC) sensitive cells represented by CEM-C7H2 (T-ALL, the sensitive sub-clone of CCRF-CEM), LOUCY (T-ALL) and DAUDI (BL), and the GC resistant cells represented by MOLT-4 (T-ALL), CUTLL (T-ALL), BJAB (BL) and SUD-136 (BL) were used. At least three kinds of cells were used in each type of cancer in order to minimize cell type specific variables. In addition, two types of malignancies were examined, T-ALL to represent leukemia behavior and BL to represent lymphoma behavior. Bone marrow cells were collected from normal donors and ALL patients. All experiments with human cells were approved by an institutional Helsinki committee and the Ministry of Health. Dexamethasone (DEX), RU486, Propidium iodide (PI), puromycin and Tri-reagent were purchased from sigma and TransIT-LT1 from Mirus.
(§4) Cells were treated with 100 nM Dex for 72 hrs. Percent apoptotic cells was determined by PI-uptake as measured in a FACS Calibur flow cytometer (BD).

BIM = BIM expression (western blot / mRNA RQ)
Procedure: as §1, §2

PANK3-GRE = assay: Chromatin immunoprecipitation of PANK3-GRE; settings: CEM-C7H2
Procedure: The EpiTech ChIP OneDay kit (Qiagen) was employed. IP antibodies used were: Rabbit-IgG (Qiagen), anti-GR (cell signaling) and anti-H3K4me1 (abcam). qRT-PCR was performed by syber green enzyme with the following primers: PANK3-GRE, GAPDH positive control and MYOD1 negative control (Qiagen). GR-GRE primers were planned as follow: Fw-5′ […] 3′ and 5′ […] 3′. % Enrichment was calculated according to the formula: 2̂(CT Mean(Input)−CT Mean of (Interested fraction))*100.

miRNAs = assay: Deep sequencing of small RNAs; settings: CEM-C7H2, Dex 24 hrs
Procedure: RNA of cell samples was extracted by Tri-reagent. 1 μg of each sample was sequenced on an Illumina Genome Analyzer as described by Son et al, Curr Protoc Microbiol; Chapter 1: Unit 1E 4. Data analysis was performed by a miRNAkey application Ronen et al., Bioinformatics; 26(20):2615-2616.

miR-103 = miR-103 level in patient peripheral blood lymphoblasts after PRED (qRT-PCR)
Procedure: Blood and bone marrow (BM) samples of pediatric acute lymphoblastic leukemia (ALL) and chronic lymphoblastic leukemia (CLL) patients were collected from hospitals for testing, and the treatment and clinical status of these patients cross-checked in a blind manner. The outline of the study was to collect blood samples from ALL patients at diagnosis, incubate the blood with or without PRED overnight and then measure miR-103 expression levels. 11 BMs of ALL patients and 6 BMs of normal pediatric donors were analyzed. Furthermore, peripheral blood samples from 8 pediatric ALL patients and 1 CLL patient were collected. The CLL and 5 ALL samples were treated with PRED in vitro while from the additional 3 ALL patients blood was taken at diagnosis and at day 1 following PRED treatment.
The outline of the study was to collect blood samples from acute lymphoblastic leukemia (ALL) patients at diagnosis, incubate the blood with or without PRED overnight and then measure miR-103 expression levels. 11 BMs of ALL patients and 6 BMs of normal pediatric donors were analyzed. Furthermore, peripheral blood samples from 8 pediatric ALL patients and 1 chronic lymphoblastic leukemia (CLL) patient were collected. The CLL and 5 ALL samples were treated with PRED in vitro while from the additional 3 ALL patients blood was taken at diagnosis and at day 1 following PRED treatment. […]

BJAB cells = assay: Total cell number / viability by flow cytometry; settings: miR-103 overexpressing BJAB
Procedure: FIGS. 6A-E: miR-103 inhibits cellular proliferation. (A) Relative Quantification of miR-103 in BM cells of […]. (B) CEM-C7H2, BJAB and miR-103 overexpressing BJAB cells were treated with Dex (24 hrs), labeled with BRDU (1 hr), fixed and analyzed by flow cytometry. (C) miR-103 overexpressing BJAB, SUD-136, DAUDI and MOLT-4 cells were treated with Dex for 72 hrs. Cellular proliferation was measured by BRDU staining. (D) miR-103 overexpressing BJAB cells were treated with Dex and/or RU486 for 72 hrs. Cell viability was determined by flow cytometry. (E) miR-103 overexpression or sponged cells were treated with Dex and then subjected to western blot analysis using anti Cyclin E1 and CDK2 antibodies. C=Untreated, D=Dex-treated.

[2] = system: CEM-C7H2, BJAB, SUD-136, DAUDI and MOLT-4 cells; assay: BRDU incorporation cellular proliferation assay; settings: miR-103 overexpressing cells, no Dex
Source text: A BrdU Cell Proliferation Assay kit (Exalpha Biological, Inc) or a BrdU Flow Kit (BD Pharmingen) were used to determine cellular proliferation.

[3] = system: CEM-C7H2, LOUCY and DAUDI cells; assay: Apoptosis by PI uptake (flow cytometry), GC-sensitive cell lines; settings: LOUCY overexpressing miR-103, Dex-treated
Source text: as §3, §4

cycline E1 and CDK2 = assay: Cycline E1 and CDK2 expression (western blot / RQ); settings: miR-103 overexpressing cells
Procedure: as §1, §2

c-Myc = c-Myc expression (western blot / RQ); settings: miR-103 overexpressing cells; further downregulated following Dex
Procedure: as §1, §2

c-Myb = c-Myb expression (western blot); settings: CEM-C7H2 and MOLT-4 T-ALL cells
Procedure: as §1

DVL1 and β-Catenin = DVL1 and β-Catenin expression (western blot)
Procedure: as §1

miR-17˜92a = assay: miR-17~92a cluster expression (RQ / fold change); settings: resistant BJAB
Procedure: RNA of cell samples was extracted by Tri-reagent. 1 μg of each sample was sequenced on an Illumina Genome Analyzer as described by Son et al, Curr Protoc Microbiol; Chapter 1: Unit 1E 4.
as §2, with “GTCTCCAATCATCGGCGTT” left out

Molecule: miR-18a: human miRNA of miR-17˜92a, SEQ ID NO: 19, re-expressed from plasmid (UAAGGUGCAUCUAGUGCAGAUAG; listed as Homo sapiens) [reference compound]
- miR-103-mediated GR upregulation after restoring miR-18a (GR; miR-103 transfected cells transfected with miR-18a): inhibition of the GR upregulation mediated by miR-103
- miR-103-mediated GCIA after re-expression of miR-17˜92a members [1]: counteracted the miR-103-mediated GCIA

Molecule: miR-20a: human miRNA of miR-17˜92a, SEQ ID NO: 14, re-expressed from plasmid (UAAAGUGCUUAUAGUGCAGGUAG; listed as Homo sapiens) [reference compound]
- miR-103-mediated GCIA after re-expression of miR-17˜92a members [1]: counteracted the miR-103-mediated GCIA
- BIM level after restoring miR-20a (BIM; miR-103 overexpressing BJAB transfected with miR-20a): re-suppressed

Molecule: miR-30d: human miRNA, SEQ ID NO: 3, overexpression plasmid (UGUAAACAUCCCCGACUGGAAG; listed as Homo sapiens)
- Conferring GC sensitivity (GCIA) by miRNA transfection [1]: sensitized

Molecule: C[C@@H]1C[C@H]2[C@@H]3CCC4=CC(=O)C=C[C@]4(C)[C@@]3(F)[C@@H](O)C[C@]2(C)[C@@]1(O)C(=O)CO [Dex, Dexamethasone]
- PANK3-GRE enrichment, anti-GR antibody, Dex-treated compared with untreated (PANK3-GRE): approximately 5%
- Number of miRNAs most significantly modulated by Dex (miRNAs): 22

Molecule: C[C@]12C=CC(=O)C=C1CC[C@@H]1[C@@H]2C(=O)C[C@@]2(C)[C@H]1CC[C@]2(O)C(=O)CO [PRED, prednisone]
- miR-103 level in peripheral malignant lymphoblasts after PRED (miR-103; PRED good responders (PGR) ALL patients): upregulated
- miR-103 level in peripheral malignant lymphoblasts after PRED (miR-103; prednisone poor response (PPR) ALL patients): downregulated

Molecule: miR-15b: human miRNA, SEQ ID NO: 4, overexpression plasmid (UAGCAGCACAUCAUGGUUUACA; listed as Homo sapiens)
- Conferring GC sensitivity (GCIA) by miRNA transfection [1]: sensitized

Molecule: miR-16: human miRNA, SEQ ID NO: 5, overexpression plasmid (UAGCAGCACGUAAAUAUUGGCG; listed as Homo sapiens)
- Conferring GC sensitivity (GCIA) by miRNA transfection [1]: sensitized

Molecule: miR-30e: human miRNA, SEQ ID NO: 2, overexpression plasmid (UGUAAACAUCCUUGACUGGAAG; listed as Homo sapiens)
- Conferring GC sensitivity (GCIA) by miRNA transfection [1]: sensitized

Molecule: miR-103: human miRNA, SEQ ID NO: 1 AGCAGCAUUGUACAGGGCUAUGA, expressed from overexpression plasmid (Table 3) (listed as Homo sapiens)
- Total cell number in the culture (BJAB cells): reduced the total cell number
- GR protein and mRNA on miR-103 overexpression (GR; miR-103 overexpressing cells): both GR protein and mRNA upregulation
- Cell proliferation (BRDU) by miR-103 itself [2]: significantly reduced cell proliferation
- Conferring GC sensitivity (GCIA) by miRNA transfection [1]: particularly effective in conferring GC sensitivity
- Apoptosis of miR-103 overexpressing resistant cells with Dex ([1]; MOLT-4, CUTLL, BJAB, SUD136 overexpressing miR-103, Dex-treated): underwent significant apoptosis
- Apoptosis on miR-103 overexpression without Dex ([1]; untreated cells): only a minor effect on apoptosis
- GC induced apoptosis (GCIA) in miR-103 overexpressing cells [3]: became hyper-sensitive to GCIA
- Cycline E1 and CDK2 expression on miR-103 overexpression (cycline E1 and CDK2): downregulated
- BIM expression on miR-103 overexpression (BIM; protein and mRNA, augmented by Dex): induced BIM upregulation both at the protein and mRNA levels
- c-Myc expression on miR-103 overexpression (c-Myc): reduced
- c-Myb expression on miR-103 overexpression (c-Myb): downregulates
- DVL1 and β-Catenin on miR-103 overexpression (DVL1 and β-Catenin; Burkitt's lymphoma cells): downregulated
- DVL1 expression on miR-103 overexpression (DVL1 and β-Catenin; CEM-C7H2): even upregulated
- β-Catenin level on miR-103 overexpression (DVL1 and β-Catenin; CEM-C7H2): unaffected
- β-Catenin level on miR-103 overexpression (DVL1 and β-Catenin; MOLT4): even upregulated
- miR-17˜92a expression on miR-103 overexpression (miR-17˜92a): reduced expression
